Results reported in the kinase profiling compilation of Christmann-Franck et al. (2016).

Legend:
Assay in all cases: Caliper, Mobility shift assay off-chip
CSNK1A1 (human) = CSNK1A1 (human) (UniProt P48729)
MST1R (human) = MST1R (human) (UniProt Q04912)
MAP4K4 (human) = MAP4K4 (human) (UniProt O95819)
PHKG2 (human) = PHKG2 (human) (UniProt P15735)
CSNK1G3 (human) = CSNK1G3 (human) (UniProt Q9Y6M4)
HIPK3 (human) = HIPK3 (human) (UniProt Q9H422)
PLK3 (human) = PLK3 (human) (UniProt Q9H4B4)
FGR (human) = FGR (human) (UniProt P09769)
FGR (human), sequence (P09769 whole entry, looked up): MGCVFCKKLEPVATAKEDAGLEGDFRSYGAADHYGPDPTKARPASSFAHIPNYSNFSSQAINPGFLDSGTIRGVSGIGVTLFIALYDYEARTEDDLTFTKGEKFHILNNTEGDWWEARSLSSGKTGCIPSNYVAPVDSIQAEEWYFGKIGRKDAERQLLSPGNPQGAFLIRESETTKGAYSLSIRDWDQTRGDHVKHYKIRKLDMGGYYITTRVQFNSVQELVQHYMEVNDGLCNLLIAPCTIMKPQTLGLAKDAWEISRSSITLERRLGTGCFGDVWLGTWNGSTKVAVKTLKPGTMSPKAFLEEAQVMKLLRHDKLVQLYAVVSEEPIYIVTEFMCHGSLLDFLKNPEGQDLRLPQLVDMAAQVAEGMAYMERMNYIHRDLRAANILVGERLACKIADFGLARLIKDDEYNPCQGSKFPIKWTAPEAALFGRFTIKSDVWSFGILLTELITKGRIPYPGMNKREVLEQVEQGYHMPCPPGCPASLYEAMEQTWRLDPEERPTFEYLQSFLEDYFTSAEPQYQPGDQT

ALK EML4 (human) = ALK EML4 (human) (UniProt Q9HC35+Q9UM73)
PRKD2 (human) = PRKD2 (human) (UniProt Q9BZL6)
PHKG1 (human) = PHKG1 (human) (UniProt Q16816)
PAK6 (human) = PAK6 (human) (UniProt Q9NQU5)
FGFR3 (human) = FGFR3 (human) (UniProt P22607)
PGK1 (human) = PGK1 (human) (UniProt P00558)
NEK1 (human) = NEK1 (human) (UniProt Q96PY6)
LTK (human) = LTK (human) (UniProt P29376)
LTK (human), sequence (P29376 whole entry, looked up): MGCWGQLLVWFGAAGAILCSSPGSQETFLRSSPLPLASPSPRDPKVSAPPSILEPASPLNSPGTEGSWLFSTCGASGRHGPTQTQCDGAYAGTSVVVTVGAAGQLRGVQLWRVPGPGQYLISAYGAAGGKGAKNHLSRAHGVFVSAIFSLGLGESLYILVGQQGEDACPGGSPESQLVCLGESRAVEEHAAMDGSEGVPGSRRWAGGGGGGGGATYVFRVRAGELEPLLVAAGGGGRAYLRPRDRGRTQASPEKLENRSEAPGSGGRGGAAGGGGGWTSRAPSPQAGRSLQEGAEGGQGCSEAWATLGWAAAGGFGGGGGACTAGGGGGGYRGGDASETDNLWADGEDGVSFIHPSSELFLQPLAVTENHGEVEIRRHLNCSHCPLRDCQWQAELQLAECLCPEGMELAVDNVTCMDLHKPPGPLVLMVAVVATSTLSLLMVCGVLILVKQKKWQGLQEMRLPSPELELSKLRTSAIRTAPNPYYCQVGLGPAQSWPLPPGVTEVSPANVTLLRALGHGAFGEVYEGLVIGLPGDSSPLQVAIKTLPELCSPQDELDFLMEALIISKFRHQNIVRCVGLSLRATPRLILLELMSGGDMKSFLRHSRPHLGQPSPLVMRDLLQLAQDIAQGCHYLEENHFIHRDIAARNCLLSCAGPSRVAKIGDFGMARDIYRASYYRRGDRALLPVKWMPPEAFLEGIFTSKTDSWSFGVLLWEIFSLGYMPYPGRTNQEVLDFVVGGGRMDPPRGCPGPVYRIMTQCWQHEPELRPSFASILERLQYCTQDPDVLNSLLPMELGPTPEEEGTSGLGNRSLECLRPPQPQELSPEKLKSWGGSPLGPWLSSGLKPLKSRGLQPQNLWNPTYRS

CAMK1 (human) = CAMK1 (human) (UniProt Q14012)
CAMK1 (human), sequence (Q14012 whole entry, looked up): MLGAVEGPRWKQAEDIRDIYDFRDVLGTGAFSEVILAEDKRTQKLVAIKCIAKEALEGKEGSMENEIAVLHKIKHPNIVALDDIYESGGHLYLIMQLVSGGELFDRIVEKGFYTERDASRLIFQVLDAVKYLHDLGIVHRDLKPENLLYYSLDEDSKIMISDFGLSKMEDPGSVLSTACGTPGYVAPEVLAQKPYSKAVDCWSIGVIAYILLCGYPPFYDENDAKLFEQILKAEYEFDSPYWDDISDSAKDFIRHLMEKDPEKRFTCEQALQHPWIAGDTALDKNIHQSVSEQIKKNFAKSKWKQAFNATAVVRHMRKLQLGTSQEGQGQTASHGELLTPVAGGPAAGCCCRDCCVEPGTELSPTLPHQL

SRPK2 (human) = SRPK2 (human) (UniProt P78362)
NUAK2 (human) = NUAK2 (human) (UniProt Q9H093)
NUAK2 (human), sequence (Q9H093 whole entry, looked up): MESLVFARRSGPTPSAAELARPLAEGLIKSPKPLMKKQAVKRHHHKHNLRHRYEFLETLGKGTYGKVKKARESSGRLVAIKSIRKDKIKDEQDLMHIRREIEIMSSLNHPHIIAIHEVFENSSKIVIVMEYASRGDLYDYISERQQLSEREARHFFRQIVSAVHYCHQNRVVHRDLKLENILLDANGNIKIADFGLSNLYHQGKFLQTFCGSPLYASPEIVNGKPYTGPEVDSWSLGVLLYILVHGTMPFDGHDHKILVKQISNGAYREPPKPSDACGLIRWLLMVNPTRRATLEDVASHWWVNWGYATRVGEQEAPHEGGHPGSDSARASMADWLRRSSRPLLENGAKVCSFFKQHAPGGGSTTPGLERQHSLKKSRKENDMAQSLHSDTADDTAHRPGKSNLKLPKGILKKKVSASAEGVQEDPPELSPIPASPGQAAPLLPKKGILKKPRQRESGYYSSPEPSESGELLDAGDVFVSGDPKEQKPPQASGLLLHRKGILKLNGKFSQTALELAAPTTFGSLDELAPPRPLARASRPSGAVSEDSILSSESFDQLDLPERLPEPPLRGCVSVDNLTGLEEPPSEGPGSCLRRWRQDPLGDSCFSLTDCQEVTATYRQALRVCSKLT

SIK1 (human) = SIK1 (human) (UniProt P57059)
PRKAA2 (human) = PRKAA2 (human) (UniProt P54646)
FER (human) = FER (human) (UniProt P16591)
RPS6KA6 KD1 KD2 (human) = RPS6KA6 KD1 KD2 (human) (UniProt Q9UK32)
EPHA6 (human) = EPHA6 (human) (UniProt Q9UF33)
STK4 (human) = STK4 (human) (UniProt Q13043)
PIM2 (human) = PIM2 (human) (UniProt Q9P1W9)
EPHB4 (human) = EPHB4 (human) (UniProt P54760)
CIT (human) = CIT (human) (UniProt O14578)
SRPK3 (human) = SRPK3 (human) (UniProt Q9UPE1)
SRPK3 (human), sequence (Q9UPE1 whole entry, looked up): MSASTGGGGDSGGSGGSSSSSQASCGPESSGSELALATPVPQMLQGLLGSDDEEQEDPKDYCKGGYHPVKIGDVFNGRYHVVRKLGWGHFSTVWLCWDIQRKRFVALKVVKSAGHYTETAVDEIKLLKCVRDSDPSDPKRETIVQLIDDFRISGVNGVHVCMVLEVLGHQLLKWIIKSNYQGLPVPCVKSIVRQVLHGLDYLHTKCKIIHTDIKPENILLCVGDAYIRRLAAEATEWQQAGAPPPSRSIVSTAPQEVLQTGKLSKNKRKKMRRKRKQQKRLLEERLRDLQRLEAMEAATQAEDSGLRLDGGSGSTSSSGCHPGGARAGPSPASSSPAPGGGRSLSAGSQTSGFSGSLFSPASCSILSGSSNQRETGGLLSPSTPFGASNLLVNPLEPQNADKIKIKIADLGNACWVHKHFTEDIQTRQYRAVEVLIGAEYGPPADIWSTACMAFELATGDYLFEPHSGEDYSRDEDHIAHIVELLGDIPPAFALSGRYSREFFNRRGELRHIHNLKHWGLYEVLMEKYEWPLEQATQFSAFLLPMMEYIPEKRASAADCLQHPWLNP

PRKD1 (human) = PRKD1 (human) (UniProt Q15139)
BMX (human) = BMX (human) (UniProt P51813)
RPS6KB2 (human) = RPS6KB2 (human) (UniProt Q9UBS0)
MAPK10 (human) = MAPK10 (human) (UniProt P53779)

PHKG2 (human), sequence (P15735 whole entry, looked up): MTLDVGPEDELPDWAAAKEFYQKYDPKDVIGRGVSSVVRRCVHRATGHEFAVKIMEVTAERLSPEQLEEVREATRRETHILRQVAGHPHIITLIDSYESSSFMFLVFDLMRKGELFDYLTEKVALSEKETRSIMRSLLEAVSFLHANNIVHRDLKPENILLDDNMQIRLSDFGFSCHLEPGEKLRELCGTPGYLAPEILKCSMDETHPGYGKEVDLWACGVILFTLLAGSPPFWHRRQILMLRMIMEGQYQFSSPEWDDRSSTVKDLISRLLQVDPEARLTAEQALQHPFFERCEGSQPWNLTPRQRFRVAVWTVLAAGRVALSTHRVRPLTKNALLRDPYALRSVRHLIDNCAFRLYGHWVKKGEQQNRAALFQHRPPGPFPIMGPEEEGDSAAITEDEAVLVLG
HIPK3 (human), sequence (Q9H422 whole entry, looked up): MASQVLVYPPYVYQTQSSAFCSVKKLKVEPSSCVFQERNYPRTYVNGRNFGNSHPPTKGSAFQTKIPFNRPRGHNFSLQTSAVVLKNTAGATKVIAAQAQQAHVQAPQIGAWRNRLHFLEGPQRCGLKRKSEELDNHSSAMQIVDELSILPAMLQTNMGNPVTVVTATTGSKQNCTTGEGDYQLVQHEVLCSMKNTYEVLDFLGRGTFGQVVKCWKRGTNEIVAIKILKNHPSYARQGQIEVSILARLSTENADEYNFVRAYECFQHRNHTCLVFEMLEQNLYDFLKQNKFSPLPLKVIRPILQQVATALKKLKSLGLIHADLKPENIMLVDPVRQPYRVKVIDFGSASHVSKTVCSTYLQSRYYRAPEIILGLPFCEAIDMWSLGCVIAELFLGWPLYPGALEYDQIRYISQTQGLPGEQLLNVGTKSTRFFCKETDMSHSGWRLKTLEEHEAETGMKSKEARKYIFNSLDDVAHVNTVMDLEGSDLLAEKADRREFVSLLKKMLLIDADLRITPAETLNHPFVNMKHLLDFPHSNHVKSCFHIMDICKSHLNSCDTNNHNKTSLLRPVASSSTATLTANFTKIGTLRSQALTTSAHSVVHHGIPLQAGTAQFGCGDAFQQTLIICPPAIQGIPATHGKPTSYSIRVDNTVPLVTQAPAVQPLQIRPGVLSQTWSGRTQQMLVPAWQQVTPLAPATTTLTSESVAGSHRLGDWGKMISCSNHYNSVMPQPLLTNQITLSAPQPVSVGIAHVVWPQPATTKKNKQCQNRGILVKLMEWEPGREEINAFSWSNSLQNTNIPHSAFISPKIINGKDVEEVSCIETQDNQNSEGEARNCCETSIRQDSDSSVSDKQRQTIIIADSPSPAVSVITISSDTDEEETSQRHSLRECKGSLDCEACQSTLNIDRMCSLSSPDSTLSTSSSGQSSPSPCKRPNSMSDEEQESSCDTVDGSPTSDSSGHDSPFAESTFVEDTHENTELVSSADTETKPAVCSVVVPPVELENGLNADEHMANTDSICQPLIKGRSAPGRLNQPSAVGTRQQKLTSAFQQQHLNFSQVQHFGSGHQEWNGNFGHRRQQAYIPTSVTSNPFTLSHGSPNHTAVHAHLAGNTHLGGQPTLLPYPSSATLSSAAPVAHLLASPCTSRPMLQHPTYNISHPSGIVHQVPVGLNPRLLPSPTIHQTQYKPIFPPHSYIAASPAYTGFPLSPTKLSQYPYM
CSNK1G3 (human), sequence (Q9Y6M4 whole entry, looked up): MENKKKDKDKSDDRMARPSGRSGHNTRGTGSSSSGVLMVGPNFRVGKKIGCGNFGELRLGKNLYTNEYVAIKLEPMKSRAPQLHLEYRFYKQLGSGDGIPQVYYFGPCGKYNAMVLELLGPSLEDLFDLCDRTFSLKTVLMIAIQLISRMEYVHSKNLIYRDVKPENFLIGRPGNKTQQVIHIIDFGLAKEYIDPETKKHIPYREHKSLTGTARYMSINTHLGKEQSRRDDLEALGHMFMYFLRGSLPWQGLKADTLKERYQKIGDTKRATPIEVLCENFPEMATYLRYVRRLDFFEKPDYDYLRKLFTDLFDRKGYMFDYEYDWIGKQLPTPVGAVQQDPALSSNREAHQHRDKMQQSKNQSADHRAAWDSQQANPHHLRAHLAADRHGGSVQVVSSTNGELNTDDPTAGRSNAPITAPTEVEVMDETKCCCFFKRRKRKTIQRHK

Compound: CNC(=O)c1ccccc1Sc1ccc2c(/C=C/c3ccccn3)n[nH]c2c1
- inhibition (CSNK1A1 (human); compound 0.001 µM): -8.2%
- inhibition (CSNK1A1 (human); compound 0.02 µM): -7.8%
- inhibition (MST1R (human); compound 0.001 µM): 0.8%
- inhibition (MST1R (human); compound 0.02 µM): 1.8%
- inhibition (MAP4K4 (human); compound 0.001 µM): -2.3%
- inhibition (MAP4K4 (human); compound 0.02 µM): 1.2%
- inhibition (PHKG2 (human); compound 0.001 µM): -6.2%
- inhibition (PHKG2 (human); compound 0.02 µM): -3.3%
- inhibition (CSNK1G3 (human); compound 0.001 µM): -3.7%
- inhibition (CSNK1G3 (human); compound 0.02 µM): -2.5%
- inhibition (HIPK3 (human); compound 0.001 µM): -5.2%
- inhibition (HIPK3 (human); compound 0.02 µM): -1.1%
- inhibition (PLK3 (human); compound 0.001 µM): 3.7%
- inhibition (PLK3 (human); compound 0.02 µM): -1.3%
- inhibition (FGR (human); compound 0.001 µM): 8.2%
- inhibition (FGR (human); compound 0.02 µM): 25%
- inhibition (ALK EML4 (human); compound 0.001 µM): -2%
- inhibition (ALK EML4 (human); compound 0.02 µM): -3.9%
- inhibition (PRKD2 (human); compound 0.001 µM): -4.8%
- inhibition (PRKD2 (human); compound 0.02 µM): -2.1%
- inhibition (PHKG1 (human); compound 0.001 µM): -7%
- inhibition (PHKG1 (human); compound 0.02 µM): -4.4%
- inhibition (PAK6 (human); compound 0.001 µM): -7%
- inhibition (PAK6 (human); compound 0.02 µM): 0.1%
- inhibition (FGFR3 (human); compound 0.001 µM): 8.1%
- inhibition (FGFR3 (human); compound 0.02 µM): 47.4%
- inhibition (PGK1 (human); compound 0.001 µM): -3.7%
- inhibition (PGK1 (human); compound 0.02 µM): -5.3%
- inhibition (NEK1 (human); compound 0.001 µM): -7.5%
- inhibition (NEK1 (human); compound 0.02 µM): -8.1%
- inhibition (LTK (human); compound 0.001 µM): 2.1%
- inhibition (LTK (human); compound 0.02 µM): 0.9%
- inhibition (CAMK1 (human); compound 0.001 µM): -3.4%
- inhibition (CAMK1 (human); compound 0.02 µM): -4.5%
- inhibition (SRPK2 (human); compound 0.001 µM): -9.3%
- inhibition (SRPK2 (human); compound 0.02 µM): -6.5%
- inhibition (NUAK2 (human); compound 0.001 µM): 9.9%
- inhibition (NUAK2 (human); compound 0.02 µM): -0.7%
- inhibition (SIK1 (human); compound 0.001 µM): -5.3%
- inhibition (SIK1 (human); compound 0.02 µM): -4.6%
- inhibition (PRKAA2 (human); compound 0.001 µM): 4.5%
- inhibition (PRKAA2 (human); compound 0.02 µM): 8.8%
- inhibition (FER (human); compound 0.001 µM): 5.9%
- inhibition (FER (human); compound 0.02 µM): 3.9%
- inhibition (RPS6KA6 KD1 KD2 (human); compound 0.001 µM): -7%
- inhibition (RPS6KA6 KD1 KD2 (human); compound 0.02 µM): -0.1%
- inhibition (EPHA6 (human); compound 0.02 µM): 0.3%
- inhibition (STK4 (human); compound 0.001 µM): -5.9%
- inhibition (STK4 (human); compound 0.02 µM): 2%
- inhibition (PIM2 (human); compound 0.001 µM): 4.4%
- inhibition (PIM2 (human); compound 0.02 µM): 2.5%
- inhibition (EPHB4 (human); compound 0.001 µM): -7.3%
- inhibition (EPHB4 (human); compound 0.02 µM): -5.5%
- inhibition (CIT (human); compound 0.001 µM): -2.2%
- inhibition (CIT (human); compound 0.02 µM): -4.4%
- inhibition (SRPK3 (human); compound 0.001 µM): -3.3%
- inhibition (SRPK3 (human); compound 0.02 µM): -0.9%
- inhibition (PRKD1 (human); compound 0.001 µM): -2.7%
- inhibition (PRKD1 (human); compound 0.02 µM): -2.2%
- inhibition (BMX (human); compound 0.001 µM): 7.1%
- inhibition (BMX (human); compound 0.02 µM): 4.9%
- inhibition (RPS6KB2 (human); compound 0.001 µM): 9.2%
- inhibition (RPS6KB2 (human); compound 0.02 µM): 1.8%
- inhibition (MAPK10 (human); compound 0.001 µM): -5%
- inhibition (MAPK10 (human); compound 0.02 µM): -4.4%

Compound: Cc1ccc(Nc2nccc(N(C)c3ccc4c(C)n(C)nc4c3)n2)cc1S(N)(=O)=O
- inhibition (CSNK1A1 (human); compound 0.02 µM): -4.9%
- inhibition (CSNK1A1 (human); compound 0.2 µM): -7%
- inhibition (MST1R (human); compound 0.02 µM): 2.1%
- inhibition (MST1R (human); compound 0.2 µM): 4.9%
- inhibition (MAP4K4 (human); compound 0.02 µM): 3.9%
- inhibition (MAP4K4 (human); compound 0.2 µM): 24.6%
- inhibition (PHKG2 (human); compound 0.02 µM): -3.5%
- inhibition (PHKG2 (human); compound 0.2 µM): -1.8%
- inhibition (CSNK1G3 (human); compound 0.02 µM): 0.7%
- inhibition (CSNK1G3 (human); compound 0.2 µM): -0.3%
- inhibition (HIPK3 (human); compound 0.02 µM): 2.3%
- inhibition (HIPK3 (human); compound 0.2 µM): 2.6%
- inhibition (PLK3 (human); compound 0.02 µM): 5.4%
- inhibition (PLK3 (human); compound 0.2 µM): 5.7%
- inhibition (FGR (human); compound 0.02 µM): 18.8%
- inhibition (FGR (human); compound 0.2 µM): 54.2%
- inhibition (ALK EML4 (human); compound 0.02 µM): -0.3%
- inhibition (ALK EML4 (human); compound 0.2 µM): 6.8%
- inhibition (PRKD2 (human); compound 0.02 µM): -2.2%
- inhibition (PRKD2 (human); compound 0.2 µM): -1.5%
- inhibition (PHKG1 (human); compound 0.02 µM): -1.4%
- inhibition (PHKG1 (human); compound 0.2 µM): -1.9%
- inhibition (PAK6 (human); compound 0.02 µM): -5.8%
- inhibition (PAK6 (human); compound 0.2 µM): -5.8%
- inhibition (FGFR3 (human); compound 0.02 µM): 21.3%
- inhibition (FGFR3 (human); compound 0.2 µM): 68.5%
- inhibition (PGK1 (human); compound 0.02 µM): -5.4%
- inhibition (PGK1 (human); compound 0.2 µM): -2.2%
- inhibition (NEK1 (human); compound 0.02 µM): -4.7%
- inhibition (NEK1 (human); compound 0.2 µM): 3.5%
- inhibition (LTK (human); compound 0.02 µM): 5.1%
- inhibition (LTK (human); compound 0.2 µM): 11.9%
- inhibition (CAMK1 (human); compound 0.02 µM): -2.3%
- inhibition (CAMK1 (human); compound 0.2 µM): 1.4%
- inhibition (SRPK2 (human); compound 0.02 µM): -4.8%
- inhibition (SRPK2 (human); compound 0.2 µM): -3.2%
- inhibition (NUAK2 (human); compound 0.02 µM): -16.5%
- inhibition (NUAK2 (human); compound 0.2 µM): 6.3%
- inhibition (SIK1 (human); compound 0.02 µM): -3%
- inhibition (SIK1 (human); compound 0.2 µM): 0%
- inhibition (PRKAA2 (human); compound 0.02 µM): 7%
- inhibition (PRKAA2 (human); compound 0.2 µM): -6.6%
- inhibition (FER (human); compound 0.02 µM): 15.1%
- inhibition (FER (human); compound 0.2 µM): 40.1%
- inhibition (RPS6KA6 KD1 KD2 (human); compound 0.02 µM): 1.2%
- inhibition (RPS6KA6 KD1 KD2 (human); compound 0.2 µM): 1.7%
- inhibition (EPHA6 (human); compound 0.02 µM): 3.8%
- inhibition (EPHA6 (human); compound 0.2 µM): 22.3%
- inhibition (STK4 (human); compound 0.02 µM): -4.7%
- inhibition (STK4 (human); compound 0.2 µM): -5.1%
- inhibition (PIM2 (human); compound 0.02 µM): 2.7%
- inhibition (PIM2 (human); compound 0.2 µM): 6.8%
- inhibition (EPHB4 (human); compound 0.02 µM): -2.8%
- inhibition (EPHB4 (human); compound 0.2 µM): -2.6%
- inhibition (CIT (human); compound 0.02 µM): -2.3%
- inhibition (CIT (human); compound 0.2 µM): 0.3%
- inhibition (SRPK3 (human); compound 0.02 µM): -1.1%
- inhibition (SRPK3 (human); compound 0.2 µM): 2.1%
- inhibition (PRKD1 (human); compound 0.02 µM): -1.1%
- inhibition (PRKD1 (human); compound 0.2 µM): -0.8%
- inhibition (BMX (human); compound 0.02 µM): 6.9%
- inhibition (BMX (human); compound 0.2 µM): 0.9%
- inhibition (RPS6KB2 (human); compound 0.02 µM): 4.3%
- inhibition (RPS6KB2 (human); compound 0.2 µM): 6.7%
